Test results: PubChem BioAssay AID280 (DTP/NCI, 2004)
Where “and” joins values, the source holds several entries; their conditions need not be identical. Equal values may be shown once. Toxic doses and inconclusive results are not listed. How the source made its calls: active means survival T/C of 150% or more; inactive means T/C below 125% in these data.

Test system: nude mice, LOX melanoma ip, survival T/C
Experiment: NCI In Vivo Anticancer Drug Screen. Data for tumor model Human Amelanotic Melanoma (LOX) (intraperitoneal) in NU/NU BALB/C (nude) mice
Conditions: endpoint: median survival time, higher = longer survival
Protocol: The antitumor activity of compounds was measured in mice bearing transplantable tumors. Survival or tumor size were measured and the results are expressed as the measurement made in the treated group (T) divided by the measurement made in the vehicle treated control group (C). The tumor model used in this assay is Human Amelanotic Melanoma (LOX) (intraperitoneal) in NU/NU BALB/C (nude) mice

[1] = dose: 75.0 mg/kg/injection, schedule: Q04DX003 (ip), vehicle: suspension in saline
[2] = dose: 150.0 mg/kg/injection, schedule: Q04DX003 (ip), vehicle: suspension in saline
[3] = dose: 300.0 mg/kg/injection, schedule: Q04DX003 (ip), vehicle: suspension in saline

Measured: T/C

COC1C(O)CC(OC2CC(Oc3cc4cc5c(c(O)c4c(O)c3C)C(=O)[C@@H](OC3CC(OC4CC(OC6CC(C)(O)C(OC(C)=O)C(C)O6)C(O)C(C)O4)C(O)C(C)O3)[C@H]([C@H](OC)C(=O)[C@@H](O)[C@@H](C)O)C5)OC(C)C2OC(C)=O)OC1C (stereo partly specified)
inactive: dose: 0.15 mg/kg/injection, schedule: Q04DX003 (ip), vehicle: Klucel (hydroxypropylcellulose) (HPC) 116 % of control
active: dose: 0.3 mg/kg/injection, schedule: Q04DX003 (ip), vehicle: Klucel (hydroxypropylcellulose) (HPC) 314 % of control | dose: 0.6 mg/kg/injection, schedule: Q04DX003 (ip), vehicle: Klucel (hydroxypropylcellulose) (HPC) 198 % of control

N[C@@H](Cc1c[nH]c2ccccc12)C(=O)Nc1nncs1
inactive: [1] 107 % of control | [2] 94 % of control | [3] 94 % of control | dose: 600.0 mg/kg/injection, schedule: Q04DX003 (ip), vehicle: suspension in saline 119 % of control

[Cl][Pt][Cl].[NH-]C(CO)C(=O)O (stereo unspecified)
inactive: dose: 9.38 mg/kg/injection, schedule: Q04DX003 (ip), vehicle: water 119 % of control | dose: 18.75 mg/kg/injection, schedule: Q04DX003 (ip), vehicle: water 114 % of control | dose: 37.5 mg/kg/injection, schedule: Q04DX003 (ip), vehicle: water 123 % of control

CCCCCCn1c(SC)nc(COC(=O)NC)c1COC(=O)NC
inactive: dose: 33.7 mg/kg/injection, schedule: Q04DX003 (ip), vehicle: saline 118 % of control | dose: 40.1 mg/kg/injection, schedule: Q04DX003 (ip), vehicle: water 97 % of control | dose: 60.1 mg/kg/injection, schedule: Q04DX003 (ip), vehicle: water 87 % of control | dose: 90.0 mg/kg/injection, schedule: Q04DX003 (ip), vehicle: water 97 % of control | dose: 135.0 mg/kg/injection, schedule: Q04DX003 (ip), vehicle: water 86 % of control | dose: 202.4 mg/kg/injection, schedule: Q04DX003 (ip), vehicle: water 99 % of control
active: dose: 67.5 mg/kg/injection, schedule: Q04DX003 (ip), vehicle: saline 171 % of control | dose: 135.0 mg/kg/injection, schedule: Q04DX003 (ip), vehicle: saline 208 % of control

COc1cccc2c1C(=O)c1c(O)c3c(c(O)c1C2=O)C[C@@](O)(C(=O)CO)C[C@@H]3OC1CC(N)C(O)C(C)O1 (stereo partly specified)
active: dose: 0.25 mg/kg/injection, schedule: Q01DX015 (ip), vehicle: water 162 % of control | dose: 0.5 mg/kg/injection, schedule: Q01DX015 (ip), vehicle: water 167 % of control | dose: 1.0 mg/kg/injection, schedule: Q01DX005 (ip), vehicle: water 208 % of control | dose: 1.0 mg/kg/injection, schedule: Q01DX015 (ip), vehicle: water 152 % of control | dose: 1.0 mg/kg/injection, schedule: Q04DX003 (ip), vehicle: water 270 % of control | dose: 2.0 mg/kg/injection, schedule: Q01DX001 (ip), vehicle: water 197 % of control | dose: 2.0 mg/kg/injection, schedule: Q04DX003 (ip), vehicle: water 203 % of control | dose: 4.0 mg/kg/injection, schedule: Q01DX001 (ip), vehicle: water 240 % of control | dose: 4.0 mg/kg/injection, schedule: Q04DX003 (ip), vehicle: water 151 % of control | dose: 4.0 mg/kg/injection, schedule: Q04DX003 (iv), vehicle: saline 158 % of control | dose: 8.0 mg/kg/injection, schedule: Q04DX003 (iv), vehicle: saline 275 % of control
inactive: dose: 4.0 mg/kg/injection, schedule: Q04DX003 (ip), vehicle: saline 107 % of control | dose: 8.0 mg/kg/injection, schedule: Q04DX003 (ip), vehicle: saline 122 % of control | dose: 16.0 mg/kg/injection, schedule: Q04DX003 (ip), vehicle: saline 101 % of control

CC[C@@H](C)[C@H]([C@H](CC(=O)N1CCC[C@@H]1[C@@H](OC)[C@H](C)C(=O)N[C@H](Cc1ccccc1)c1nccs1)OC)N(C)C(=O)[C@H](NC(=O)[C@@H](C(C)C)N(C)C)C(C)C
active: dose: 3.25 micrograms/kg/injection, schedule: Q04DX003 (ip), vehicle: saline + alcohol 170 % of control | dose: 6.5 micrograms/kg/injection, schedule: Q04DX003 (ip), vehicle: saline + alcohol 206 % of control | dose: 13.0 micrograms/kg/injection, schedule: Q04DX003 (ip), vehicle: saline + alcohol 301 % of control | dose: 15.0 micrograms/kg/injection, schedule: Q04DX003 (ip), vehicle: saline + alcohol 192 % of control | dose: 26.0 micrograms/kg/injection, schedule: Q04DX003 (ip), vehicle: saline + alcohol 181 % of control and 301 % of control | dose: 43.0 micrograms/kg/injection, schedule: Q04DX003 (ip), vehicle: saline + alcohol 340 % of control
inactive: dose: 3.0 micrograms/kg/injection, schedule: Q04DX003 (ip), vehicle: saline + alcohol 109 % of control | dose: 6.0 micrograms/kg/injection, schedule: Q04DX003 (ip), vehicle: saline + alcohol 113 % of control | dose: 9.0 micrograms/kg/injection, schedule: Q04DX003 (ip), vehicle: saline + alcohol 115 % of control

CC1(O)C=CC(=O)C=C1
inactive: dose: 6.25 mg/kg/injection, schedule: Q04DX003 (ip), vehicle: water 108 % of control | dose: 12.5 mg/kg/injection, schedule: Q04DX003 (ip), vehicle: water 101 % of control | dose: 25.0 mg/kg/injection, schedule: Q04DX003 (ip), vehicle: water 105 % of control | dose: 50.0 mg/kg/injection, schedule: Q04DX003 (ip), vehicle: water 111 % of control

COc1cccc2c1C(CO)N1C(C#N)C3CC(C(=O)O)C(C1C2)N3C (stereo unspecified)
active: dose: 12.5 mg/kg/injection, schedule: Q04DX003 (ip), vehicle: saline 175 % of control | dose: 12.5 mg/kg/injection, schedule: Q04DX003 (ip), vehicle: suspension in saline 164 % of control | dose: 25.0 mg/kg/injection, schedule: Q04DX003 (ip), vehicle: saline 157 % of control

Nc1nc2n[nH]nc2c(=O)[nH]1
active: dose: 37.5 mg/kg/injection, schedule: Q04DX003 (ip), vehicle: suspension in saline 164 % of control | [1] 177 % of control | [2] 217 % of control | [3] 251 % of control

O=C(Oc1ccccc1)c1cc(O)c(O)c(O)c1
active: dose: 37.5 mg/kg/injection, schedule: Q04DX003 (ip), vehicle: saline 157 % of control | dose: 150.0 mg/kg/injection, schedule: Q04DX003 (ip), vehicle: saline 152 % of control
inactive: dose: 75.0 mg/kg/injection, schedule: Q04DX003 (ip), vehicle: saline 99 % of control | dose: 300.0 mg/kg/injection, schedule: Q04DX003 (ip), vehicle: saline 88 % of control | dose: 600.0 mg/kg/injection, schedule: Q04DX003 (ip), vehicle: saline 94 % of control

Cc1cc(=NO)cc(C)n1O
inactive: dose: 75.0 mg/kg/injection, schedule: Q04DX003 (ip), vehicle: distilled water + alcohol 101 % of control | dose: 150.0 mg/kg/injection, schedule: Q04DX003 (ip), vehicle: distilled water + alcohol 103 % of control | dose: 300.0 mg/kg/injection, schedule: Q04DX003 (ip), vehicle: distilled water + alcohol 101 % of control | dose: 600.0 mg/kg/injection, schedule: Q04DX003 (ip), vehicle: distilled water + alcohol 96 % of control

N/C(=N\OC(=O)Nc1ccc(CSc2ccc(Cl)cc2)o1)c1ccccn1
inactive: dose: 18.75 mg/kg/injection, schedule: Q04DX003 (ip), vehicle: Klucel (hydroxypropylcellulose) (HPC) 97 % of control | dose: 37.5 mg/kg/injection, schedule: Q04DX003 (ip), vehicle: Klucel (hydroxypropylcellulose) (HPC) 97 % of control | dose: 75.0 mg/kg/injection, schedule: Q04DX003 (ip), vehicle: Klucel (hydroxypropylcellulose) (HPC) 92 % of control | dose: 150.0 mg/kg/injection, schedule: Q04DX003 (ip), vehicle: Klucel (hydroxypropylcellulose) (HPC) 102 % of control

C[n+]1c(-c2ccc(NC(=O)c3ccc(C(=O)Nc4ccc(-c5cn6ccccc6[n+]5C)cc4)cc3)cc2)cn2ccccc21
inactive: dose: 12.5 mg/kg/injection, schedule: Q04DX003 (ip), vehicle: saline with Tween-80 114 % of control | dose: 25.0 mg/kg/injection, schedule: Q04DX003 (ip), vehicle: saline with Tween-80 103 % of control | dose: 50.0 mg/kg/injection, schedule: Q04DX003 (ip), vehicle: saline with Tween-80 97 % of control

Cc1c2ccccc2c(C)c2c1cc(C(=O)O)c1ccccc12
active: dose: 200.0 mg/kg/injection, schedule: Q04DX003 (ip), vehicle: sodium bicarbonate 167 % of control
inactive: dose: 12.5 mg/kg/injection, schedule: Q04DX003 (ip), vehicle: sodium bicarbonate 115 % of control | dose: 25.0 mg/kg/injection, schedule: Q04DX003 (ip), vehicle: sodium bicarbonate 118 % of control
